One assay has as its system SKMEL-28 cells. The experiment in a line: MTT cell viability assay, SKMEL-28 melanoma cells. The format is cell-based, human. The settings on record: for IC50: Homo sapiens, SK-MEL-28, 24 h; for Cell viability inhibition, SKMEL-28 (result in words): 10–100 μM, 6, 24 and 48 h. On the procedure:
(§1) Three cell types were studied. The HT-144 and SKMEL-28 cell lines derived from human melanoma and were obtained from the American Tissue Culture Collection (ATCC). They were grown in Mc Coy’s 5a modified and minimal essential medium (MEM) respectively, supplemented with 10% (v/v) fetal bovine serum (FBS) and 1% (v/v) antibiotic (penicillin, streptomycin) at 37 °C in a humidified atmosphere of 5% CO2. Human dermal fibroblasts (HDF) were isolated from skin biopsies of healthy subjects. Briefly, the hypodermis was mechanically removed and explants were cut in 1 mm^2 pieces. Skin fragments were then cultivated in Dulbecco’s minimal essential medium (DMEM) supplemented with 20% FBS, 1% antibiotic and 1% fungizone at 37 °C in a humidified atmosphere of 5% CO2. The medium was changed every two days. After 4 weeks of cultures, fibroblasts have covered all the surface of the culture dishes and were trypsined. Cells were grown in DMEM containing 10% FBS and 1% antibiotic at 37 °C in a humidified atmosphere of 5% CO2. Subcultures 3 to 9 were used in this study.
(§2) The three cell types were seeded into 96-well plates (0.32 cm^2, 5500 cells in 200 μL medium par well). After 24 h of culture, the cells were treated in triplicate wells with different bio-produced stilbenes and synthetic resveratrol (≥99%, Sigma-Aldrich, Saint-Quentin Fallavier, France) amounts and treatment times. Compounds were dissolved in ethanol at a 5 × 10^−2 M final concentration and stored at −20 °C. Compounds were diluted in culture media, with or without FBS, to the desired final concentration. All control and treated cells received a maximal volume of 0.1% (v/v) of ethanol.
(§3) Cell viability was tested by the MTT [3-(4,5-dimethyl thiazol-2yl)-2,5-diphenyltetrazolium bromide] assay (Sigma-Aldrich). After MTT addition (0.5 mg/mL), the plates were incubated for 3 h at 37 °C in a humidified atmosphere of 5% CO2. At the end of the incubation period, the medium was removed and the converted dye was solubilized with dimethyl sulfoxide (DMSO). Absorbance of the converted dye was measured at a wavelength of 560 nm using a plate reader Tecan F200 Pro (Tecan, Lyon, France). The 50% inhibitory concentration (IC50) for each bio-produced stilbene was defined as the concentration producing 50% decrease in cell growth.
(Tetrazolium assays rely on reduction of a dye to a coloured formazan, in cell work by metabolically active cells.)

The subject of another assay is HT-144 cells. As to the kind of experiment: MTT cell viability assay, HT-144 melanoma cells. The settings on record: for IC50: Homo sapiens, HT-144, 24 h; for Cell viability inhibition, HT-144 (result in words): 10–100 μM, 6, 24 and 48 h. It is filed as cell-based, human. The method, then:
as §1, §2, §3

A further assay deals with HDF cells. As to the kind of experiment: MTT cell viability assay, healthy human dermal fibroblasts. The format is cell-based. The settings on record: for IC50: Homo sapiens, HDF, 24 h; for Cell viability inhibition, HDF (result in words): 10–100 μM, 6, 24 and 48 h. On the procedure: as §1, §2, §3
[1] abbreviates: with FBS (10% FBS), read-out: IC50 SKMEL-28 with FBS.
Setting [2] is: without FBS (0% FBS), read-out: IC50 SKMEL-28 without FBS.
Setting [3] is: with FBS (10% FBS), read-out: IC50 HT-144 with FBS.
Setting [4] is: without FBS (0% FBS), read-out: IC50 HT-144 without FBS.
Where [5] appears, read: with FBS (10% FBS), read-out: IC50 HDF with FBS.
Where [6] appears, read: without FBS (0% FBS), read-out: IC50 HDF without FBS.

Like-named read-outs stand apart in the source and are kept apart here.

Five molecules from publication PMC6155302, “Anti-Cancer Activity of Resveratrol and Derivatives Produced by Grapevine Cell Suspensions in a 14 L Stirred Bioreactor” (Molecules : A Journal of Synthetic Chemistry and Natural …, 2017) can be followed below.

As a reminder, the IC50 is the concentration that inhibits the measured activity by half.

On to `Oc1ccc([C@@H]2c3c(O)cc(O)cc3[C@H]3[C@H](c4ccc(O)cc4)c4c(O)cc(O)cc4[C@@H]23)cc1` [Pallidol, pallidol], for which the IC50 in the assay on SKMEL-28 cells (setting [1]), in the assay on SKMEL-28 cells (setting [2]), in the assay with HT-144 cells (setting [3]), in the assay on HT-144 cells (setting [4]), in the assay with HDF cells (setting [5]) and with HDF cells (setting [6]) was over 100 µM in each case.

Consider `Oc1ccc(C(O)C(Oc2ccc(C=Cc3cc(O)cc(O)c3)cc2)c2cc(O)cc(O)c2)cc1` (stereo not drawn) [Dimer (6)], for which the “Cell viability inhibition, SKMEL-28 (result in words)” value in the assay with SKMEL-28 cells was “significant cell viability inhibition”. In addition, the 50% inhibitory concentration (IC50) in the assay on SKMEL-28 cells (setting [1]) was over 100 µM; in the assay on SKMEL-28 cells (setting [2]), 23 ± 0.3 µM; in the assay on HT-144 cells (setting [3]), over 100 µM; in the assay with HT-144 cells (setting [4]), 24.9 ± 0.62 µM; in the assay on HDF cells (setting [5]) it was over 100 µM; with HDF cells (setting [6]) it was 22.2 ± 2.61 µM. In addition, the “Cell viability inhibition, HT-144 (result in words)” value in the assay on HT-144 cells is listed as “significant cell viability inhibition”. In the assay with HDF cells, the “Cell viability inhibition, HDF (result in words)” value (shortened to “Cell viability inhibition, HDF”) is on record as “significant cell viability inhibition”.

With `Oc1ccc(/C=C/c2cc(O)cc(O)c2)cc1` [Trans-resveratrol, trans-resveratrol], the IC50 is over 100 µM with SKMEL-28 cells (setting [1]); over 100 µM in the assay on SKMEL-28 cells (setting [2]); 93.3 ± 7.6 µM with HT-144 cells (setting [3]); over 100 µM in the assay with HT-144 cells (setting [4]); over 100 µM with HDF cells (setting [5]); over 100 µM in the assay on HDF cells (setting [6]).

For the molecule `Oc1ccc(/C=C/c2cc(O)cc3c2[C@@H](c2cc(O)cc(O)c2)[C@H](c2ccc(O)cc2)O3)cc1` [ɛ-viniferin, ε-viniferin], the “Cell viability inhibition, SKMEL-28 (result in words)” value in the assay with SKMEL-28 cells is “significant cell viability inhibition”. The IC50 in the assay with SKMEL-28 cells (setting [1]) is 86.6 ± 2.59 µM; in the assay with SKMEL-28 cells (setting [2]), 15.9 ± 0.44 µM; in the assay with HT-144 cells (setting [3]), 82.3 ± 3.23 µM; with HT-144 cells (setting [4]), 17.58 ± 0.09 µM; in the assay with HDF cells (setting [5]), 91.9 ± 11.3 µM; with HDF cells (setting [6]), 16.4 ± 1.19 µM. For the same molecule, the “Cell viability inhibition, HT-144 (result in words)” value in the assay on HT-144 cells was “significant cell viability inhibition”. Besides, the “Cell viability inhibition, HDF” value in the assay with HDF cells is given as “significant cell viability inhibition”.

`Oc1ccc(/C=C/c2cc(O)cc(O)c2)cc1` [synthetic resveratrol, trans-resveratrol, reference compound]: the “Cell viability inhibition, SKMEL-28 (result in words)” value in the assay on SKMEL-28 cells is given as “dose-dependent decrease in cell growth”. Moreover, in the assay with HT-144 cells, the “Cell viability inhibition, HT-144 (result in words)” value is on record as “dose-dependent decrease in cell growth”. In the assay on HDF cells, the “Cell viability inhibition, HDF” value is “dose-dependent decrease in cell growth”.
